A short description of data set [1]: Seven-Day Oral (Gavage) Toxicity and Toxicokinetics Study in Rats. It counts as in vivo, Crl:CD(SD) rats. The settings on record: male rats. The text has this: Seven-Day Oral (Gavage) Toxicity and Toxicokinetics Study in Rats
Crl:CD(SD) rats were obtained from Charles River Laboratories of Stone Ridge, N.Y. The animals were laboratory bred and experimentally naïve. Rats were chosen because they are a species that is commonly used for nonclinical toxicity evaluations.
Animals received the test article or vehicle by oral gavage for 7 consecutive days and were terminated the day following completion of dosing. The first day of dosing was designated as Day 1 of the study. The animals were evaluated for changes in clinical signs, body weight, and other parameters as described below.
The vehicle and test article were administered by oral gavage once daily for 7 consecutive days at a dose volume of 10 mL/kg body weight for Group A and Groups B-D, respectively. The test article and vehicle were administered by oral gavage twice daily, approximately 8 hours apart, for 7 consecutive days at a dose volume of 10 mL/kg body weight for Group E and Group F, respectively. The actual volume administered to each animal was calculated and adjusted based on the most recent body weight of each animal.
During the treatment period, daily cageside observations were made and recorded predose and postdose (following the first dose only). The postdosing observations made during treatment occurred at the following times based on Cmax/Tmax for the two compounds from previous studies:
Prior to start of dosing, body weights were measured for randomization on Day 1. During the treatment, body weights were measured on Day 1 and Day 7. In addition, fasted body weights were measured prior to necropsy for calculation of organ/body weight ratios.
Throughout the study, food consumption was measured daily starting 3 days prior to start of dosing.
Blood samples for evaluation of hematology, coagulation, and serum chemistry parameters were collected from all animals from the retro-orbital plexus (under CO2/O2 anesthesia, for the main study animals) or jugular vein cannula (for the toxicokinetic animals) prior to necropsy. Due to residual heparin used to keep the cannulas patent for the toxicokinetic animals, coagulation samples from these rats, were not able to be analyzed. The animals were fasted overnight prior to blood collection. On the day of blood collection for clinical pathology analyses, the animals were not necropsied until after the blood was collected and the samples judged to be acceptable by the clinical pathology group.
On the 1st and 7th day of dosing, blood samples (approximately 0.5 mL/sample) were collected from the jugular vein cannula for all toxicokinetic animals at the timepoints listed below into K3EDTA-containing tubes. […] Prior to each collection, a small sample of blood (with heparin blocking solution) was removed from the cannula and discarded. A new syringe was placed on the cannula, and the protocol-required sample was taken. The syringe with the blood sample was removed, and a new syringe with saline attached to the cannula. Blood volume was replaced with an equal volume of saline and then blocking solution placed in the cannula. Each animal was returned to its cage until the next collection timepoint.
For all animals euthanized at scheduled necropsies, the kidneys, liver, and prostate gland were weighed. Following weighing, an approximate 1 gram sample of liver and kidney was weighed, transferred to Precellys 7 mL CK28 Tissue Homogenizing tubes (Cat. No. 0904-01), snap-frozen, and analyzed.
For all animals scheduled for the terminal necropsy, the kidneys, liver, and prostate were embedded in paraffin, sectioned and stained with hematoxylin and eosin for further examination by light microscopy. For Groups A, D, E, and F only, the remaining tissues listed above were embedded in paraffin, sectioned and stained with hematoxylin and eosin for further examination by light microscopy. […]

The test system of data set [2] is Mycobacterium tuberculosis. Kind of data set: Mycobacterium tuberculosis Serum Shift MIC Assay (Protocol 5). The note with it: ATCC 35801 / ERDMAN. The data set is classed as cell-based. The text has this: Protocol 5. Protocol for Mycobacterium tuberculosis Serum Shift MIC Assay
Media Prep: • 1. […] It was important that all media and supplements were sterilized prior to MICs. • 2. Prepared all media below and inoculated as described in next section. Tested all compounds against Mtb using each media. • a. […] 7H9+0.2% glycerol+2 g/L dextrose+0.85 g/L NaCl+0.003 g/L catalase (0% FBS). • c. 2×7H9+0.2% glycerol+2 g/L dextrose+0.85 g/L NaCl+0.003 g/L catalase combined with equal volume Fetal Bovine Serum (50% FBS).
Inoculum Prep: • 1. Using BBL Prompt, picked 5-10 well-separated colonies and inoculated 1 ml sterile saline that came in the kit. Typically plates were two to three weeks of age when used for this assay due to the slow growth of this organism in culture. • 2. Vortexed well, then sonicated in water bath for 30 sec providing a suspension of ˜10^8 cells/ml. Actual density could be confirmed by plating out dilutions of this suspension. • 3. Prepared inoculum in each of the three media formulations by diluting the BBL Prompt suspension 1/200 (for example: transferred 0.2 ml of cells to 40 ml of medium) to obtain a starting cell density of […]. • 4. Used 100 μl cells (˜5×10^4 cells) to inoculate each microtiter well containing 1 μl of drug in DMSO (see below).
Drug Dilutions, Inoculation, MIC Determination: • 1. Control drug stocks Isoniazid and Novobiocin were prepared at 10 mM in 100% DMSO while Ciprofloxacin and Rifampin were prepared at 1 mM in 50% DMSO and 100% DMSO, respectively. Prepared dilutions—dispensed 100 μL of the stock solution into the first column of a 96-well plate. Prepared 11-step, 2-fold serial dilutions across the row for each compound by transferring 50 μl from column 1 into 50 μl of DMSO in column 2. Continued to transfer 50 μL from column 2 through column 11 while mixing and changing tips at each column. Left column 12 with DMSO only as a control. • 2. Transferred 1 μl of each dilution into an empty microtiter well prior to the addition of 100 μl of cells. The starting concentration of Isoniazid and Novobiocin was 100 μM after the dilution into medium+cells; the starting concentration of Ciprofloxacin and Rifampin was 10 μM after the dilution into medium+cells. Compound concentrations decreased in 2× steps moving across the rows of the microtiter plate. […] Measured background fluorescence at Excitation 492 nm, Emission 595 nm and returned the plate to the incubator for another 24 hours.
After 24 hours the fluorescence of each well was measured at Excitation 492 nm, Emission 595 nm.
Percent inhibition by a given compound was calculated as follows: Percent inhibition=100−([well fluorescence-average background fluorescence]/[DMSO control−average background fluorescence]×100). […]

In data set [3] the test system is M. tuberculosis H37Rv. Description: Monotherapy against established TB in mice (dose-ranging activity study). It counts as in vivo. The settings on record: for Log cfu (lung) / Log Reduction: BALB/c mice, M. tuberculosis H37Rv; for Log cfu (lung): 4 weeks of treatment; for Log Reduction: 4 weeks, vs untreated control.
Data set [4] can be described thus: Rat IV Study (pharmacokinetics). The settings on record: male Sprague Dawley rats, plasma analyte = label.
The test system of data set [5] is M. tuberculosis. Description: microbe, parasite or virus in culture. It counts as cell-based. The note with it: for MIC: Mycobacterium tuberculosis, H37RA, read-out: MIC, Broth.
The subject of data set [6] is intracellular M. tuberculosis in THP-1 cells. Description: microbe, parasite or virus in culture. The note with it: Mycobacterium tuberculosis, H37RA; for MIC: read-out: MIC, Macrophage Cells. It counts as cell-based.
Data set [7] relates to M. tuberculosis H37Rv. Description: Minimum bactericidal concentration (MBC) assay. The settings on record: 0.125 ug/mL. It counts as cell-based.
The test system of data set [8] is Non-Replicating (NRP) M. tuberculosis H37Ra. Kind of data set: Non-replicating (NRP) M. tuberculosis H37Ra (luciferase) culture assay. It counts as cell-based. The note with it: Mycobacterium tuberculosis, 336 h, read on day 14.
Setting [9] is: 100 mg/kg daily 5 days per week.
Setting [10] is: Compound W dosed IV bolus 1 mg/kg in D5W.
[11] abbreviates: Compound W dosed IV bolus 5 mg/kg in D5W.

In brackets after ≈: the same amount, converted by molar mass. Counter-ions that a name gives are not always drawn. Like-named read-outs stand apart in the source and are kept apart here.

For `CCNC(=O)Nc1nc2cc(-c3cnc(C(C)(C)O)nc3)cc([C@H]3CCCO3)c2[nH]1` [Compound 13, methanesulfonic acid salt of 1-ethyl-3-[5-[2-(1-hydroxy-1-methyl-ethyl)pyrimidin-5-yl]-7-[(2R)-tetrahydrofuran-2-yl]-1H-benzimidazol-2-yl]urea], the “dose levels at which no adverse toxicity was demonstrated” value in data set [1] (7 days oral gavage) is reported as “up to 200 mg/kg/day”. Besides, the “adverse observations or effects on mean body weight” value in data set [1] (7 days oral gavage, all dose groups) is given as “No adverse observations or effects on mean body weight”. For the same molecule, the histopathological findings entry in data set [1] (any dose regimen) is given as “No test article-related histopathological findings”. Further, in data set [1] (once a day for 7 days orally via gavage), the “NOEL (No-Observable-Effect-Level)” value is reported as 200 mg/kg. Also, the Mean food consumption entry in data set [1] (once daily 100 or 200 mg/kg, not considered adverse) is listed as “reduced”. The “exposures for different dosage levels” value in data set [1] (toxicokinetics) is on record as “dose related”. For the same molecule, the MIC in data set [2] (M. tuberculosis Erdman ATCC 35801, read-out: MIC) amounted to 0.045 µg/mL; in data set [2] (M. tuberculosis Erdman ATCC 35801 with Mouse Serum) it was 2 µg/mL.

Take `CCNC(=O)Nc1nc2cc(-c3cnc(C(C)(C)OP(=O)([O-])[O-])nc3)c(F)c([C@H]3CCCO3)c2[nH]1.[Na+].[Na+]` [Compound W, disodium (R)-2-(5-(2-(3-ethylureido)-6-fluoro-7-(tetrahydrofuran-2-yl)-1H-benzo[d]imidazol-5-yl)pyrimidin-2-yl)propan-2-yl phosphate]: in data set [3] (10 mg/kg daily 5 days per week), the “Log cfu (lung)” value was found to be 6.38 and the “Log Reduction” value came to 0. In data set [3] (30 mg/kg daily 5 days per week), the “Log cfu (lung)” value worked out at 5.51 and the “Log Reduction” value was 0.49. In addition, in data set [3] (setting [9]), the “Log cfu (lung)” value is on record as 5.35 and the “Log Reduction” value turned out to be 0.65. For the same molecule, in data set [3] (at 30 and 100 mg/kg, p<0.01 by one-way ANOVA with Dunnett's post-test), the “activity compared with no treatment” value is “superior to no treatment”. Besides, in data set [4] (setting [10]), the AUCextrap amounted to 419 ng·h/mL, the Cl_obs worked out at 46.7 mL/min/kg, the Vss_obs is 0.38 L/kg and the t½ was 0.9 h. In data set [4] (setting [11]), the AUCextrap is 1120 ng·h/mL, the Cl_obs amounted to 84.6 mL/min/kg, the Vss_obs is given as 5.8 L/kg and the t½ stood at 7.2 h.

For the molecule `CC[C@@H](CO)NCCN[C@@H](CC)CO` [Ethambutol], the MIC in data set [5] is 2.55 µg/mL (≈ 12.5 µM); in data set [6] it was 1.26 µg/mL (≈ 6.17 µM).

In data set [7], `NNC(=O)c1ccncc1` [Isoniazid, isonicotinohydrazide, reference compound] gave a Log cfu of 4.28. The “Log Reduction” value in data set [7] (vs untreated control) is recorded as 1.85; in data set [3] (10 mg/kg daily 5 days per week) it was 0.99. Moreover, the “Log cfu (lung)” value in data set [3] (10 mg/kg daily 5 days per week) is recorded as 5.01. Besides, the MIC stood at 0.21 µg/mL (≈ 1.53 µM) in data set [5] and 0.012 µg/mL (≈ 0.0875 µM) in data set [6]. In addition, the IC50 in data set [8] was greater than 50 µg/mL.

Consider `CC(=O)NC[C@H]1CN(c2ccc(N3CCOCC3)c(F)c2)C(=O)O1` [Linezolid], for which the MIC in data set [5] stood at 0.53 µg/mL (≈ 1.57 µM); in data set [6], 0.37 µg/mL (≈ 1.1 µM).

As for `CO[C@@H]1[C@@H](OC(N)=O)[C@@H](O)[C@H](Oc2ccc3c(O)c(NC(=O)c4ccc(O)c(CC=C(C)C)c4)c(=O)oc3c2C)OC1(C)C` [Novobiocin], the Erdman (MIC) in data set [5] stood at 61 µg/mL. In data set [6] (THP-1, 120 h, read-out: Mtb H37Ra in THP1 Cells (IC50)), the IC50 amounted to 2.1 µg/mL (≈ 3.43 µM).

For the molecule `CO[C@H]1/C=C/O[C@@]2(C)Oc3c(C)c(O)c4c(O)c(c(/C=N/N5CCN(C)CC5)c(O)c4c3C2=O)NC(=O)/C(C)=C\C=C\[C@H](C)C(O)[C@@H](C)[C@@H](O)[C@@H](C)[C@H](OC(C)=O)[C@@H]1C` (stereo partly drawn) [Rifampin, (7S,9E,11S,12R,13S,14R,15R,16R,17S,18S,19E,21Z)-2,15,17,27,29-pentahydroxy-11-methoxy-3,7,12,14,16,18,22-heptamethyl-26-{(E)-[(4-methylpiperazin-1-yl)imino]methyl}-6,23-dioxo-8,30-dioxa-24-azatetracyclo[23.3.1.1^4.7.0^5.28]triaconta-1(28),2,4,9,19,21,25(29),26-octaen-13-yl acetate], in data set [3] (10 mg/kg daily 5 days per week), the “Log cfu (lung)” value is 4.38 and the “Log Reduction” value came out at 1.62. In addition, the MIC in data set [5] turned out to be 0.03 µg/mL. The molecule further returned an IC50 in data set [8] of less than 0.05 µg/mL. Further, the MIC in data set [6] stood at 0.008 µg/mL.

(Values after patent US9937192B2, “Combination therapy to treat mycobacterium diseases” (priority 2012, dated 2018).)
